tested on: Mycobacterium tuberculosis variant bovis; assay: Antimycobacterial activity against Mycobacterium bovis ATCC 35734 assessed as inhibition of bacterial growth at 128 uM measured after 7 days by luminescence based analysis relative to control; assay type: functional; conditions: ATCC 35734, 168 h, time 7 day

Q: With `COC(=O)[C@@H](NC(=O)c1ccc(/C=C2\SC(=O)N(CC(=O)NOCc3ccccc3)C2=O)cc1)C(C)C` as the molecule, how does the inhibition at 128 µM read?
A: 11.2%

Q: `CC(C)[C@H](NC(=O)[C@H](C)NC(=O)c1ccn(CC(=O)NOCc2ccccc2)c1)C(=O)O` was tested. Which inhibition at 128 µM did it give?
A: 10.2%

Q: Which inhibition at 128 µM does the source give for `CC(C)C[C@H](NC(=O)CNC(=O)c1ccn(CC(=O)NOCc2ccccc2)c1)C(=O)O` here?
A: 9.7%

Q: For `COC(=O)[C@H](CC(C)C)NC(=O)c1cccc(/C=C2\SC(=O)N(CC(=O)NOCc3ccccc3)C2=O)c1`, which inhibition at 128 µM is on record?
A: 17.2%

Q: How did the inhibition at 128 µM turn out when `CC(C)[C@H](NC(=O)CNC(=O)c1ccn(CC(=O)NOCc2ccccc2)c1)C(=O)O` was run?
A: 8.2%

Q: Which inhibition at 128 µM does the source give for `C=CCONC(=O)Cn1cc(C(=O)N[C@@H](C)C(=O)N[C@H](C(=O)O)C(C)C)c2ccccc21` here?
A: 18.5%

Q: For `COC(=O)[C@@H](NC(=O)c1cccc(/C=C2\SC(=O)N(CC(=O)NOCc3ccccc3)C2=O)c1)C(C)C`, which inhibition at 128 µM is on record?
A: 7.2%

Q: `COC(=O)[C@H](CC(C)C)NC(=O)c1ccc(/C=C2\SC(=O)N(CC(=O)NOCc3ccccc3)C2=O)cc1` was tested. Which inhibition at 128 µM did it give?
A: 14.6%

Q: Which inhibition at 128 µM does the source give for `CC(C)[C@H](NC(=O)CNC(=O)c1cn(CC(=O)NOCc2ccccc2)c2ccccc12)C(=O)O` here?
A: 10.3%

Q: How did the inhibition at 128 µM turn out when `CC(C)C[C@H](NC(=O)CNC(=O)c1cn(CC(=O)NOCc2ccccc2)c2ccccc12)C(=O)O` was run?
A: 33.7%

Q: For `C=CCONC(=O)CN1C(=O)S/C(=C\c2ccc(C(=O)N[C@H](C(=O)OC)C(C)C)cc2)C1=O`, which inhibition at 128 µM is on record?
A: 10.5%

Q: Which inhibition at 128 µM does the source give for `C=CCONC(=O)Cn1cc(C(=O)N[C@@H](C)C(=O)N[C@@H](CC(C)C)C(=O)O)c2ccccc21` here?
A: 7.7%

Q: For `C=CCONC(=O)Cn1cc(C(=O)NCC(=O)N[C@@H](CC(C)C)C(=O)O)c2ccccc21`, which inhibition at 128 µM is on record?
A: 18.3%

Q: How did the inhibition at 128 µM turn out when `CC(C)C[C@H](NC(=O)[C@H](C)NC(=O)c1cn(CC(=O)NOCc2ccccc2)c2ccccc12)C(=O)O` was run?
A: 7.2%

Q: `CC(C)C[C@H](NC(=O)[C@H](C)NC(=O)c1ccn(CC(=O)NOCc2ccccc2)c1)C(=O)O` was tested. Which inhibition at 128 µM did it give?
A: 25.2%

Q: Which inhibition at 128 µM does the source give for `C=CCONC(=O)CN1C(=O)S/C(=C\c2ccc(C(=O)N[C@@H](CC(C)C)C(=O)OC)cc2)C1=O` here?
A: 11.3%

Q: `C=CCONC(=O)Cn1ccc(C(=O)N[C@@H](C)C(=O)N[C@H](C(=O)O)C(C)C)c1` was tested. Which inhibition at 128 µM did it give?
A: 9.3%

Q: Which inhibition at 128 µM does the source give for `C=CCONC(=O)CN1C(=O)S/C(=C\c2cccc(C(=O)N[C@@H](CC(C)C)C(=O)OC)c2)C1=O` here?
A: 9.7%

Q: With `C=CCONC(=O)Cn1ccc(C(=O)NCC(=O)N[C@@H](CC(C)C)C(=O)O)c1` as the molecule, how does the inhibition at 128 µM read?
A: 5.2%

Q: How did the inhibition at 128 µM turn out when `C=CCONC(=O)CN1C(=O)S/C(=C\c2cccc(C(=O)N[C@H](C(=O)OC)C(C)C)c2)C1=O` was run?
A: 9.8%

Q: How did the inhibition at 128 µM turn out when `C=CCONC(=O)Cn1cc(C(=O)NCC(=O)N[C@H](C(=O)O)C(C)C)c2ccccc21` was run?
A: 15.8%

Q: `C=CCONC(=O)Cn1ccc(C(=O)N[C@@H](C)C(=O)N[C@@H](CC(C)C)C(=O)O)c1` was tested. Which inhibition at 128 µM did it give?
A: 7.3%

Q: With `CC(C)[C@H](NC(=O)[C@H](C)NC(=O)c1cn(CC(=O)NOCc2ccccc2)c2ccccc12)C(=O)O` as the molecule, how does the inhibition at 128 µM read?
A: 34.2%

Q: `COc1nc2ccc(Br)cc2cc1[C@@H](c1ccccc1)[C@@](O)(CCN(C)C)c1cccc2ccccc12` [BEDAQUILINE] was tested. Which inhibition at 128 µM did it give?
A: 100%

Q: How did the inhibition at 128 µM turn out when `NNC(=O)c1ccncc1` [ISONIAZID] was run?
A: 100%

Q: Which inhibition at 128 µM does the source give for `CO[C@H]1/C=C/O[C@@]2(C)Oc3c(C)c(O)c4c(O)c(c(/C=N/N5CCN(C)CC5)c(O)c4c3C2=O)NC(=O)/C(C)=C\C=C\[C@H](C)[C@H](O)[C@@H](C)[C@@H](O)[C@@H](C)[C@H](OC(C)=O)[C@@H]1C` [RIFAMPIN] here?
A: 100%

From ChEMBL document CHEMBL5247593, “Novel heterocyclic hydroxamates as inhibitors of the mycobacterial zinc metalloprotease Zmp1 to probe its mechanism of function” (Eur J Med Chem, 2022)
